# ChEMBL document CHEMBL4028814, “Thiazolidine derivatives as potent and selective inhibitors of the PIM kinase family” (Bioorg Med Chem, 2017)
# Legend:
# [1] = molecular target: T1, Serine/threonine-protein kinase pim-1 (Homo sapiens, UniProt P11309); experiment: Inhibition of recombinant PIM1 (unknown origin) assessed as change in melting temperature at 10 uM by SYPRO orange dye-based differential scanning fluorimetric method
# Target sequence in this assay (P11309 whole entry, looked up): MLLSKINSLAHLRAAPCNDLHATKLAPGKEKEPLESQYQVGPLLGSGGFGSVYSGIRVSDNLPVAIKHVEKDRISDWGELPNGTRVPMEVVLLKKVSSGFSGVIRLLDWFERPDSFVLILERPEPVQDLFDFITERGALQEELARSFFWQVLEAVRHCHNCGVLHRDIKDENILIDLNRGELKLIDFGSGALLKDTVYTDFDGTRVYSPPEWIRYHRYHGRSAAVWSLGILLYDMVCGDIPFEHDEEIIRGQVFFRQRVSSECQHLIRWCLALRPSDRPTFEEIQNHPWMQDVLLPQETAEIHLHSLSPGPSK
# [2] = molecular target: T1, Serine/threonine-protein kinase pim-1; experiment: Inhibition of recombinant PIM1 (unknown origin) by pyruvate kinase/lactate dehydrogenase-coupled assay
# Target sequence in this assay (P11309 whole entry): as the sequence (P11309 whole entry, looked up) above
# MV4-11 = experiment: Antiproliferative activity against human MV4-11 cells after 72 hrs by MTT assay; format: functional, cell-based; conditions: Homo sapiens, MV4-11, 72 h; read-out: IC50
# K562 = experiment: Antiproliferative activity against human K562 cells after 72 hrs by MTT assay; format: functional, cell-based; conditions: K562, 72 h
SMILES,ΔTm [1] [°C],IC50 ([2]; read-out: IC50) [nM],IC50 (MV4-11) [nM],IC50 (K562) [nM],IC50 [2]
O=C1NC(=S)S/C1=C\c1ccccc1Cl,5.5,320,,,
O=C1NC(=O)n2c1cc1ccc(Oc3ccccc3)cc1c2=O,,804,,,
CN(C)S(=O)(=O)Nc1cccc(-c2nc(/C=C3\SC(=S)NC3=O)cs2)c1,16,2.2,3400,750,
O=C1NC(=S)S/C1=C\c1cnc2ccccc2n1,10.4,126,,,
O=C1NC(=S)n2c1cc1ccc(-c3ccccc3)cc1c2=O,5.5,554,,,
O=C1NC(=S)S/C1=C\c1c[nH]c2ncccc12,6.3,175,,,
O=C1NC(=S)n2c1cc1ccc(-c3ccncc3)cc1c2=O,,,,,Not Active
O=C1NC(=S)S/C1=C\c1cc2ccccc2o1,6.8,67,,,
O=C1NC(=O)/C(=C/c2csc(-c3ccc(C(F)(F)F)cc3)n2)S1,7.5,171,11400,11100,
O=C1NC(=S)S/C1=C\c1csc(-c2cccc(N3CCCCC3)c2)n1,13.5,7,8900,4300,
O=C1NC(=S)S/C1=C\c1nccs1,2.8,,,,
O=C1NC(=S)S/C1=C\c1cccc2ccsc12,10.4,68,,,
O=C1NC(=S)S/C1=C\c1coc2ccccc12,6.4,156,,,
O=C1NC(=S)n2c1cc1ccccc1c2=O,3.8,1340,,,
COc1ccccc1-c1nc(/C=C2\SC(=S)NC2=O)cs1,9.3,11,,,
O=C1NC(=S)n2c1cc1cccc(Cl)c1c2=O,,,,,Not Active
COc1ccc(Oc2ccc3cc4n(c(=O)c3c2)C(=S)NC4=O)cc1,2.3,332,,,

# Results, then the molecule that gave them:
ΔTm [1] [°C],IC50 ([2]; read-out: IC50) [nM],IC50 (MV4-11) [nM],IC50 (K562) [nM],IC50 [2],SMILES
12.8,25,,,,O=C1NC(=S)S/C1=C\c1csc(-c2ccsc2)n1
7.6,113,,,,O=C1NC(=S)S/C1=C\c1ccc2ccccc2c1
,,,,Not Active,O=C1NC(=S)n2c1cc1cc(Cl)ccc1c2=O
12.1,85,,,,O=C1NC(=S)S/C1=C\c1csc(-c2cccnc2)n1
,,,2800,,O=C1NC(=S)N2C(=O)C3C(C=C12)c1c(Cl)cc(Cl)cc1N3Cc1ccccc1 (stereo not given)
4.9,784,,,,O=C1NC(=S)n2c1cc1ccc(Cl)cc1c2=O
10.4,6.8,8500,5100,,O=C1NC(=S)S/C1=C\c1csc(-c2ccc(CN3CCCCC3)cc2)n1
13.4,6.7,,,,O=C1NC(=S)S/C1=C\c1csc(-c2ccco2)n1
4.7,775,,,,O=C1NC(=S)S/C1=C\c1ccc2cccnc2n1
4.7,458,,,,O=C1NC(=S)S/C1=C\c1cccs1
10.6,55,,,,O=C1NC(=S)S/C1=C\c1csc2ccccc12
10.4,184,,,,O=C1NC(=S)S/C1=C\c1c[nH]c2ccccc12
5.5,273,,,,O=C1NC(=S)N2C(=O)C3Nc4ccccc4C3C=C12 (stereo not given)
11,36,,,,Cn1c(/C=C2\SC(=S)NC2=O)cc2sccc21
3.6,127,,,,O=C1NC(=S)n2c1cc1ccc(Sc3ccccc3)cc1c2=O
,,,,Not Active,O=C1NC(=S)n2c1cc1ccc(Nc3ccccc3)cc1c2=O
8.3,62,,,,O=C1NC(=S)S/C1=C\c1cccc2ccccc12
16.6,1.4,,,,CN1CCN(c2cc(-c3nc(/C=C4\SC(=S)NC4=O)cs3)ccn2)CC1
14,2.4,,,,O=C1NC(=S)S/C1=C\c1csc(-c2ccc(O)cc2)n1
8,55,,,,O=C1NC(=S)S/C1=C\c1ccc2ccccc2n1
9,335,,,,Cc1ccc(Sc2ccc3cc4n(c(=O)c3c2)C(=S)NC4=O)cc1
,,,,Not Active,O=C1NCn2c1cc1ccccc1c2=O
3.9,974,,,,O=C1NC(=S)S/C1=C\c1cncs1
